Biological target: T1, sigma-2 receptor (Mus musculus, UniProt Q8VD00)
T1 construct: gene Tmem97; Panc02 tumor membrane homogenates
T1 sequence (Q8VD00 1-176): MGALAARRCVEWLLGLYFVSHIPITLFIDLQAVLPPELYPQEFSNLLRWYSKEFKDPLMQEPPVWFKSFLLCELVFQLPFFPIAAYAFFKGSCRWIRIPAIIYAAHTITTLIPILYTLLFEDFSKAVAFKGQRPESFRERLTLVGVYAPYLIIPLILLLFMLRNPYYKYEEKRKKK
Experiment: radioligand competition with […]-ISO-2 in membrane homogenates
Type: binding

Compound	IC50
COc1ccc(C)cc1NC(=O)OC1CC2CCCC(C1)N2CCCCCCCCCCN (centres unmarked) [SW43]	18 ± 2.1 nM
COc1ccc(C)cc1NC(=O)OC1CC2CCCC(C1)N2CCCCCCN (centres unmarked) [SV119]	7.8 ± 1.7 nM
